The structures appear in SMILES notation. Calls of active or inactive are those of the source. Bounds are passed on as bounds.

Assay [1] in a line: HEp-2 cell cytotoxicity, dose response, cytotoxicity control for RSV inhibitor project, HTS (AID 2410). The class given is functional. As to conditions: human respiratory syncytial virus.
The subject of another assay is INS1. As to the kind of experiment: beta cell apoptosis inhibitors, cytokine rescue, dose response, luminescence, retest (AID 449756).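 Further: cell death triggered by IL-1 beta plus TNF-alpha plus IFN-gamma mixture; protective hits raise ATP signal compared with cytokine alone wells.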 The class given is functional, cell-based. As to conditions: Rattus norvegicus.
For a further assay, the target named is Protein Wnt-3a (Mus musculus, UniProt P27467). As to the kind of experiment: Wnt3a-driven reporter signaling inhibition, dose response, selectivity assay for Gli-SUFU antagonist project, Wnt-LIGHT cells, luminescence (AID 651570).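 Further: Wnt-LIGHT reporter cells stimulated with conditioned medium from Wnt3a-producing cells.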 The class given is functional. As to conditions: read-out: IC50_Mean.
Chain of Protein Wnt-3a (P27467 whole entry): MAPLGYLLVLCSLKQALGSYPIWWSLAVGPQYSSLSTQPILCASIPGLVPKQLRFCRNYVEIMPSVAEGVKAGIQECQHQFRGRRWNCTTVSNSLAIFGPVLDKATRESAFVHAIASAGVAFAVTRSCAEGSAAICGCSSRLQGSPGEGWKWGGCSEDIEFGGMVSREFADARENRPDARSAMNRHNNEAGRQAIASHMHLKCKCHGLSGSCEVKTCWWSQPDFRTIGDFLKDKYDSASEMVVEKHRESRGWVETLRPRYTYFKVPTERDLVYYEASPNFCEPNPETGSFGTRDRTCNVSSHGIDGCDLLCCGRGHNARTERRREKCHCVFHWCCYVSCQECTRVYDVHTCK
The target of another assay is Melanocortin receptor 4 (Homo sapiens, UniProt P32245). The class given is functional, cell-based.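 Further: Cell-based assay with luminescence read-out, confirmatory dose-response testing for agonist activity of biased ligands at MC4R; human U2OS cells with tagged receptor and beta-arrestin; potency of agonists that increase receptor coupling to beta-arrestin.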
Chain of Melanocortin receptor 4 (P32245 whole entry): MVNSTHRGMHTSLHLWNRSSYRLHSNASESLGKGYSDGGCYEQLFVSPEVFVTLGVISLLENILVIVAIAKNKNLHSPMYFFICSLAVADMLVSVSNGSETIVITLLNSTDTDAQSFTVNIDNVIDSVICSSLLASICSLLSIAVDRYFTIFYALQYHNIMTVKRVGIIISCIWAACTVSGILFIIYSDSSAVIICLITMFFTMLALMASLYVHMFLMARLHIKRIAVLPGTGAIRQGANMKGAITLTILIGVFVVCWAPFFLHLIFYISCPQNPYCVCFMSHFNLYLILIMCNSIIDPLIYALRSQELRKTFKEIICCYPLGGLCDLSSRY
In another assay the target is T1, Aminopeptidase N (Plasmodium falciparum FcB1/Columbia, UniProt O96935).
T1 sequence (O96935 whole entry): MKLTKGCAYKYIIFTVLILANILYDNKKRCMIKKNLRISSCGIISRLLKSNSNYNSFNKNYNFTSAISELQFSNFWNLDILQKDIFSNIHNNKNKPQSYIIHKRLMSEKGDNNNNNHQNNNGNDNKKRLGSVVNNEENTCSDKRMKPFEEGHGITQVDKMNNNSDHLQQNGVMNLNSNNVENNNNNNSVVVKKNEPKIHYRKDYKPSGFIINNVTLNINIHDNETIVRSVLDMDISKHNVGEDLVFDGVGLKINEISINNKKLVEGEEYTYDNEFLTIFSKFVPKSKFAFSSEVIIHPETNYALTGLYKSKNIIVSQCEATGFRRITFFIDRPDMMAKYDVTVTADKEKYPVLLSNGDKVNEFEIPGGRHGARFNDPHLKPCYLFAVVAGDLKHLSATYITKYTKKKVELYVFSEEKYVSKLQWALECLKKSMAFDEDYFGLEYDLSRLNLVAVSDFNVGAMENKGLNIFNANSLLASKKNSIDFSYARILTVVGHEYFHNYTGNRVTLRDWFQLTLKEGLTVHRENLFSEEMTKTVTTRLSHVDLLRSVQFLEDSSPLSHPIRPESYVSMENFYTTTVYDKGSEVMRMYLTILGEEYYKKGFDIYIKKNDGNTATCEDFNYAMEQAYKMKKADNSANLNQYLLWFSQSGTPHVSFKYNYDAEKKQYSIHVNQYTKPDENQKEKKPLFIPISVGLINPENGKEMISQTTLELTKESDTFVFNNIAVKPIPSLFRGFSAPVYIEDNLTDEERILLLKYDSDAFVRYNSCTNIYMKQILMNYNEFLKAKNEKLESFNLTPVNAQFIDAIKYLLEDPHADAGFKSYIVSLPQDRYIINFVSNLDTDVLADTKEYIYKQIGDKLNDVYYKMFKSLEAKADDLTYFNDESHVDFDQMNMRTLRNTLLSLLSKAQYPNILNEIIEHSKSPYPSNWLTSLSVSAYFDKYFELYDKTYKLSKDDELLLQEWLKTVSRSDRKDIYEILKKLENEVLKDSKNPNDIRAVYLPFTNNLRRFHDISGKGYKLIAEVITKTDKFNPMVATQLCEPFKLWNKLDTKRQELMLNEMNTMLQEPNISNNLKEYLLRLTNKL
As to the kind of experiment: P. falciparum M1AAP inhibitors, biochemical, fluorogenic H-Leu-NHMec substrate, 1536-well (AID 1445). Set-up: species or system Plasmodium falciparum 3D7, 3D7.

Assay [2] can be described thus: AlphaScreen signal interference compounds, dose response, artefact control for ARNT-TACC3 interaction inhibitor project, biochemical, luminescence, cherry-pick (AID 651705).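 Further: AlphaScreen bead proximity signal that flags compounds interfering with the detection technology; potency reflects signal decrease which marks the compound as an assay artifact.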 The class given is functional.

As for `Cc1ccc(Cl)cc1N1CCN(C(=O)CSc2nnc3n2C(C)(C)Cc2ccccc2-3)CC1`, the CC50 in assay [1] is < 0.1 µM (active). In addition, the AC50 in the assay with INS1 is 5.01 µM (active). Further, the IC50 at Protein Wnt-3a was 4.43 µM (active).

As for `COc1ccc(NC(=O)Nc2nc(C(N)Cc3ccc(C(F)(F)F)cc3)cs2)cc1` (stereo unspecified), at Melanocortin receptor 4, the EC50 was > 89.2 µM (inactive).

Take `O=C(N/N=C\c1cccc([N+](=O)[O-])c1O)C1COc2ccccc2O1` (stereo unspecified): the IC50 on Aminopeptidase N was 31.4 µM (active). Further, the AC50 in assay [2] was 90.6 µM (active).

The values are drawn from ChEMBL document CHEMBL1201862, “PubChem BioAssay data set” (2004).
